Like-named read-outs stand apart in the source and are kept apart here.

Data set [1] in a line: Pharmacokinetics and brain entry of RAP-103 in rats (oral gavage and IV). It is filed as in vivo.
Data set [2] is described as follows: Pharmacokinetics and brain entry of RAP-103 in guinea pigs (oral gavage and IV). It is filed as in vivo.
Data set [3] in a line: Pharmacokinetics of RAP-103 in non-human primates (plasma levels, bioavailability). Type of data set: in vivo, Rhesus macaques; Macaca mulatta. The conditions noted are these: for bioavailability: rhesus monkey, in vivo. The procedure: In non-human primates (rhesus monkeys) RAP-103 was dosed once on Day 1 by intravenous bolus injection at 1 mg/kg and plasma levels determined. […] Drug in plasma after a single IV dose (1 mg/Kg) was still measurable at anticipated therapeutic levels 96 hrs. post-dose in non-human primates as shown in FIG. 2B.

The nature of data set [4]: Clinical observations and body weights over seven days after RAP-103 dosing (acute toxicity). Type of data set: in vivo, Rhesus macaques; Macaca mulatta.
Data set [5] deals with chemotherapy induced peripheral neuropathy (CIPN) caused by paclitaxel. The procedure:
Morphine was used as a positive control for pain response.
The ability of RAP-103 was tested to treat chemotherapy induced peripheral neuropathy (CIPN) caused by paclitaxel in rodents. This assay uses the chemotherapeutic agent paclitaxel to elicit a chronic pain state. Once established, pain in these animals can persist for weeks.
Rats were given i.p. injections of paclitaxel (2 mg/kg) on days 0, 2, 4, and 6 to induce a chronic pain state. […] On day 21 morphine (2 mg/Kg) was also administered to animals as a positive control. Pain was assessed 60 minutes after morphine or RAP-103 administration on the left rear paw on day 21 with a series of von Frey filaments with logarithmically incrementing stiffness applied perpendicular to the midplantar region of the hind paw. The paw withdrawal force (grams, g) threshold was determined.

The mark [6] stands for this setting: IV or oral gavage dosing, FIG. 2A.

On to `C[C@H](O)[C@@H](N)C(=O)N[C@@H](C(=O)N[C@H](CC(N)=O)C(=O)N[C@H](Cc1ccc(O)cc1)C(=O)N[C@@H](C(=O)O)[C@H](C)O)[C@H](C)O` [RAP-103, All D-peptide-Thr-Thr-Asn-Tyr-Thr], for which the “Brain level compared to plasma levels” value in data set [1] and in data set [2] was “preferentially enters the brain” throughout. Besides, the “Brain entry by oral compared to IV dosing” value in data set [1] (FIG. 2A) and in data set [2] (FIG. 2A) was “preferentially entered the brain by oral” in each case. Further, the Brain entry entry was “quickly entered the brain” in data set [1] (setting [6]); “quickly entered the brain” in data set [2] (setting [6]); “quickly entered the brain” in data set [3] (non-human primates (Rhesus macaque), oral and IV dosing). The “Persistence at therapeutic levels in brain” value in data set [1] (setting [6]) and in data set [2] (setting [6]) was “at least 24 hrs” throughout. For the same compound, the “Time post-dose at which drug in plasma was still measurable at anticipated therapeutic levels” value in data set [3] (non-human primates, single IV dose 1 mg/Kg, FIG. 2B) was not below 96 h. The bioavailability in data set [3] (1 mg/kg, female rhesus monkeys, 1 mg/kg dose level, read-out: Absolute bioavailability) amounted to 88%; in data set [3] (po, 1 mg/kg, male rhesus monkeys, 1 mg/kg dose level, read-out: Absolute bioavailability), 89%; in data set [3] (po, 1 mg/kg, non-human primates, read-out: Oral bioavailability), 88%. Besides, the “AUC 0-T, male versus female monkeys” value in data set [3] (rhesus monkeys, 1 mg/kg) is listed as “comparable”. In addition, in data set [3] (rhesus monkeys, 1 mg/kg), the “Cmax, male versus female monkeys” value is recorded as “comparable”. Further, the Acute toxicity result in data set [4] was “no acute toxicity”. Moreover, in data set [4], the “RAP-103-related changes in body weights” value is “no RAP-103-related changes”. Further, the “RAP-103-related changes in clinical observations” value in data set [4] is recorded as “no RAP-103-related changes”. Further, the “Treatment of paclitaxel induced CIPN compared with standard of care (morphine)” value in data set [5] (animal model of CIPN, RAP-103 0.05 mg/kg vs morphine 2 mg/Kg) is given as “at least equivalent”. Besides, in data set [5] (animal model of paclitaxel induced CIPN), the “Dose lower on a weight basis than morphine at at least equivalent effect” value is on record as “about 40 fold”. Also, in data set [5] (rats treated with paclitaxel, FIG. 4), the “Paw withdraw threshold compared to vehicle” value is given as “increased paw withdraw threshold”. The “Effect on chronic pain caused by repeated administration of paclitaxel” value in data set [5] (rats, 0.05 mg/kg daily i.p. days 17-21 post paclitaxel, assessed 60 minutes after dosing on day 21, FIG. 4) is “reduced chronic pain”.

One may read the bioavailability as the share of a dose that reaches the circulation, judged against a reference dose that is usually intravenous.
